Experiments:
[1] = In-vivo pharmacokinetic study, intravenous; set-up: species or system BALB/c nude mice; conditions: mice, free drug solutions
Procedure: In-vivo pharmacokinetic study of free afatinib and nintedanib combination (data not shown), and AFA/NIN-L (1:5 AFA:NIN molar ratio) were carried out in BALB/c nude mice. The preparation of the PEGylated AFA/NIN-L with TEA-SOS used as the trapping agent was described in the Experimental Method section. The mixture of afatinib and nintedanib free drug cocktail and PEGylated AFA/NIN-L with a molar ratio of 1:5 were administered intravenously via the tail vein into the mice and the plasma concentration of both AFA and NIN was monitored over time. Doses of the all drug formulations were 7.0 mg/kg of afatinib free base (10.3 mg/kg afatinib dimaleate) and 38.9 mg/kg of nintedanib free base (46.8 mg/kg nintedanib […]). After intravenous administration, blood was collected at multiple time points by cardiac puncture (3 mice per time point) and placed into EDTA coated micro containers. The samples were centrifuged to separate plasma, and plasma was transferred to another tube. Then, AFA and NIN plasma levels were quantified with LC-MS. PK parameters were then calculated from measured AFA and NIN plasma levels.

[2] = clinical studies, oral afatinib; cited from earlier work

elimination after IV administration [1] | Compound | treatment-related grade ≥3 AE: diarrhea [2] | treatment-related grade ≥3 AE: rash/acne [2] | treatment-related grade ≥3 AE: stomatitis/mucositis [2]
rapidly eliminated | COC(=O)c1ccc2c(c1)NC(=O)/C2=C(\Nc1ccc(N(C)C(=O)CN2CCN(C)CC2)cc1)c1ccccc1 [NIN, Nintedanib] | – | – | –
rapidly eliminated | CN(C)C/C=C/C(=O)Nc1cc2c(Nc3ccc(F)c(Cl)c3)ncnc2cc1O[C@H]1CCOC1 [AFA, Afatinib] | 5.4-14.4% | 9.7-16.2% | 5.4-8.7%
